# Assay results reported in patent US20070202158A1, “Methods Of Administering Water-Soluble Prodrugs Of Propofol For Extended Sedation” (MGI GP, Inc., priority 2003, published 2007).
# Tested on: Sprague-Dawley rats
# Assay: Behavioral sedation rating (scale 0-4) in rats after oral, intravenous or intraduodenal prodrug
# Format: in vivo, rat
# Excerpt: This example compares the dose-dependent pharmacological effects of a propofol prodrug of Formula I, O-phosphonooxymethyl propofol disodium salt, on rats when administered in a single oral dose to the pharmacological effects observed after an equipotent intravenous infusion. Young adult male Sprague-Dawley rats (250-300 g, Charles River Laboratories) received oral doses of vehicle (0.12% Tris/0.25% monothioglycerol/saline; n=4, per oral gavage) or of O-phosphonooxy-methyl propofol disodium salt at doses of 100, 200, 300 and 400 mg/kg, dissolved in vehicle at 35 mg/ml (n=2 per dose) or 200 mg/ml w/v (n=2 per dose).
# The above-described pharmacological effects of oral administration of the tested prodrug were compared with those caused by an equipotent intravenous infusion: Under halothane anesthesia, young adult rats received femoral vein catheters which were exteriorized and attached to a liquid swivel via a protectant spring. About 20 minutes after catheterization, and after full behavioral recovery from halothane anesthesia, each animal was attached to an electronic infusion pump and was administered vehicle, or 5, 10, 20, 30, or 40 mg/kg of the test prodrug (n=2 per dose) in 1 ml total volume by gradual constant-rate intravenous infusion over 10 minutes. Behavioral rating as described above began immediately following the end of infusion.
# The above-described efficacy of the tested prodrug when administered orally or intravenously was compared to a mode of administration that allows for the introduction of the prodrug directly into the gut. For this “gastric bypass” experiment, young adult male Sprague Dawley rats (225-250 g body wt.) underwent implantation of intraduodenal catheters to allow for intraduodenal instillation of an aqueous buffered solution of the prodrug. Following full recovery from catheter implantation surgery, various concentrations of O-phosphonooxymethyl propofol disodium salt in vehicle, or vehicle alone, were administered via the catheter in a constant volume of 2 ml/kg body weight to yield doses of 0, 20, 30, 50, 100, 200, 300, and 400 mg/kg body weight (n=2 per dose). Behavioral assessment was conducted as described above. […] The depth and duration of sedation, and the length of unconsciousness in the higher dose groups, depended on the administered dose.
structure (smiles),measurement,setting,value
CC(C)c1cccc(C(C)C)c1OCOP(=O)([O-])[O-].[Na+].[Na+] [O-phosphonooxymethyl propofol disodium salt],"biological potency of the peak effect, oral/intragastric relative to intravenous administration",,approximately 10%
same,intraduodenal dose causing a pharmacological effect substantially similar to 40 mg/kg intravenous,FIG. 3 vs 4,50 mg/kg
same,intraduodenal dose causing a pharmacological effect substantially similar to 400 mg/kg intragastrally,"FIGS. 1, 2 vs 4",100 mg/kg
same,intraduodenal dose expected to cause an effect substantially similar to IV 20-30 mg/kg,extrapolated from FIGS. 1-4,about 40 mg/kg
same,onset of sedative effect,intraduodenal 20-400 mg/kg,Within five minutes
same,behavioral effect following onset of sedation,"intraduodenal, higher dose groups",loss of consciousness in the higher dose groups
same,behavioral effect,intravenous infusion 5-40 mg/kg over 10 minutes,rapid-onset dose-dependent sedated/anesthetized state
same,duration of sedated/anesthetized state,intravenous vs oral administration,shorter durations as compared to oral administration
same,oral bioavailability (conclusion of study),oral,orally bioavaliable
same,behavioral effect compared to vehicle,oral 100-200 mg/kg,mild to moderate sedation
same,duration of mild to moderate sedation,"oral 100-200 mg/kg, printed 'and longer'",1 to 2 h
same,behavioral effect following onset of sedation,oral 300 and 400 mg/kg dose groups,loss of consciousness
same,onset of sedated behavior after dosing,oral gavage 100-400 mg/kg,5 to 10 min
same,duration of loss of consciousness,"oral, highest dose group",up to 1 hour
same,onset of sedated behavior after oral gavage,"oral/intragastric, 35 mg/ml w/v aqueous solution, FIG. 1",5 to 20 min
